From patent US20240041828A1, “Combination Therapeutics Comprising Nrf2 Agonists and Antivirals for Treating Viral Infections” (The Regents of the University of California, priority 2022, published 2024)
Entries after “also recorded” stand apart in the source; their conditions may differ. Where a name gives a salt, the structure may show the parent alone. Read-outs that look alike come from different tables or passages of the source.

Legend:
Format in all cases: cell-based
[1] = system: B.1.617.2 (Delta) SARS-CoV-2 variant; test: microbe, parasite or virus in culture; details: for IC50: Severe acute respiratory syndrome coronavirus 2, A549
[2] = system: B.1.617.2 (Delta) SARS-CoV-2 variant
[3] = system: SARS-coV-2 Omicron variant

SMILES	IC50 [1]	IC50 compared to comparator drug ([1]; methanesulfonate)	anti-SARS-CoV-2 activity (words, figure legend) ([1]; methanesulfonate)	drug interaction (words, figure legend) ([2]; methanesulfonate)	IC50 compared to comparator drug [3]	better antiviral effect in ALI HAE system compared to Paxlovid ([3]; ALI HAE system)	anti-SARS-CoV-2 activity (words, figure legend) ([3]; methanesulfonate)	IC50 compared to comparator drug [1]	anti-SARS-CoV-2 activity (words, figure legend) [1]	drug interaction (words, figure legend) [2]	anti-SARS-CoV-2 activity (words, figure legend) [3]
CC(C)C(=O)OC[C@H]1O[C@@H](n2ccc(NO)nc2=O)[C@H](O)[C@@H]1O [molnupiravir, Molnupiravir]	31 µM										
COC1=C(OC)C(=O)C(CCCCCCCCCC[P+](c2ccccc2)(c2ccccc2)c2ccccc2)=C(C)C1=O.CS(=O)(=O)[O-] [Mito-MES, 10-(4,5-dimethoxy-2-methyl-3,6-dioxo-1,4-cyclohexadienyl) decyl triphenylphosphonium methanesulfonate]	0.144 µM	higher IC50 compared to molnupiravir	strong anti-SARS-CoV-2 activity in single layer human airway cells that is similar to Paxlovid™; also recorded: strong anti-SARS-CoV-2 activity in single layer human airway cells that is higher than molnupiravir	additive anti-SARS-CoV-2 activity with Paxlovid™; also recorded: additive anti-SARS-CoV-2 activity with molnupiravir	higher than Paxlovid™ IC50	about 1000 fold	stronger anti-SARS-CoV-2 activity in multilayer human airway cell culture than Paxlovid™; also recorded: stronger anti-SARS-CoV-2 activity in multilayer human airway cell culture than molnupiravir				
COC(=O)/C=C/C(=O)OC [DMF, Dimethyl fumarate]	16.7 µM				IC50 that was similar to Paxlovid™; also recorded: higher than molnupiravir IC50			higher IC50 compared to Paxlovid™; also recorded: higher IC50 compared to molnupiravir	anti-SARS-CoV-2 activity in single layer human airway cells that is lower than Paxlovid™; also recorded: strong anti-SARS-CoV-2 activity in single layer human airway cells that is higher than molnupiravir	additive anti-SARS-CoV-2 activity with Paxlovid™; also recorded: additive anti-SARS-CoV-2 activity with molnupiravir	stronger anti-SARS-CoV-2 activity in multilayer human airway cell culture than molnupiravir
